{"source": "patent US7615238B2", "about": "“Plaster for the treatment of dysfunctions and disorders of nails, comprising sertaconazole” (Trommsdorff GmbH & Co. KG Arzneimitttel, priority 2001, dated 2009)", "tested_on": "fungi such as Trichophyton mentagrophytes, Trichophyton rubrum, Candida albicans, Microsporum canis, Aspergillus niger", "experiment": "Efficacy against fungi in comparison with other antifungal agents", "settings": "in most cases, Trichosporum, Alternaria, Acremonium, Fusarium, Scopulariopsis", "data": [{"substance": "(R,S)-1-[2-[(7-Chloro-3-benzo[b]thienyl)-methoxy]-2-(2,4-dichlorophenyl)-ethyl]-1H-imidazole [sertaconazole]", "values": [{"measurement": "efficacy against fungi in comparison with econazole, ketonazole, miconazole, or bifonazole", "result": "higher efficacy"}]}]}
